Reference: the supplement of paper PMC11061612

What was measured:
[1] = system: 22RV1 (Prostate Carcinoma); experiment: Bliss excess, mean over the matrix (fraction); higher = more synergy
Outline: (§1)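 Cell lines grown in DMEM/F12 or RPMI with 10% FBS were plated in 1536-well plates and held 24 hours at 37°C, 5% CO2 before 72 hours of exposure to two-drug dose matrices, with DMSO typically at 0.2%. CellTiter-Glo 2.0 luminescence gave viability, which was converted to inhibition. Vehicle wells were set to 0 and blank wells to 1. Combination Emax is the second-highest inhibition in the matrix, and Bliss excess is the observed combination effect minus the expected EA + EB − EA·EB, where EA and EB are the single-agent effects.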

[2] = system: A2780 (Ovarian Carcinoma); experiment: as above
Outline: as §1

[3] = system: CGTH-W-1 (Thyroid Gland Carcinoma); experiment: as above
Outline: as §1

EB2 (Burkitt's Lymphoma) = experiment: as above
Outline: as §1

[4] = system: HCC1395 (Breast Carcinoma); experiment: as above
Outline: as §1

HCC70 (Breast Carcinoma) = experiment: as above
Outline: as §1

[5] = system: JHH-2 (Hepatocellular Carcinoma); experiment: as above
Outline: as §1

[6] = system: LU-165 (Small Cell Lung Carcinoma); experiment: as above
Outline: as §1

[7] = system: MDA-MB-436 (Breast Carcinoma); experiment: as above
Outline: as §1

[8] = system: MHH-ES-1 (Ewing's Sarcoma); experiment: as above
Outline: as §1

[9] = system: NCI-H1703 (Squamous Cell Lung Carcinoma); experiment: as above
Outline: as §1

[10] = system: NCI-H441 (Lung Adenocarcinoma); experiment: as above
Outline: as §1

PEO1 (Ovarian Carcinoma) [11] = experiment: as above
Outline: as §1

[12] = system: SK-HEP-1 (Hepatocellular Carcinoma); experiment: as above
Outline: as §1

[13] = system: SW620 (Colorectal Carcinoma); experiment: as above
Outline: as §1

[14] = system: UACC-812 (Breast Carcinoma); experiment: as above
Outline: as §1

WM1552C (Melanoma) = experiment: as above
Outline: as §1

[15] = system: KYSE-220 (Esophageal Squamous Cell Carcinoma); experiment: combination Emax (second highest fraction inhibited in the dose matrix, 72 h); higher = more inhibition; extreme values may be limits of the assay
Outline: as §1

[16] = system: MDA-MB-436 (Breast Carcinoma); experiment: as above
Outline: as §1

PEO1 (Ovarian Carcinoma) [17] = experiment: as above
Outline: as §1
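Wherever Bliss excess, mean over the matrix is given: after 72 h of two-drug dosing.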

SMILES	Bliss excess [1]	Bliss excess [2]	Bliss excess [3]	Bliss excess (EB2 (Burkitt's Lymphoma))	Bliss excess [4]	Bliss excess (HCC70 (Breast Carcinoma))	Bliss excess [5]	Bliss excess [6]	Bliss excess [7]	Bliss excess [8]	Bliss excess [9]	Bliss excess [10]	Bliss excess (PEO1 (Ovarian Carcinoma) [11])	Bliss excess [12]	Bliss excess [13]	Bliss excess [14]	Bliss excess (WM1552C (Melanoma))	combination Emax [15]	combination Emax [16]	combination Emax (PEO1 (Ovarian Carcinoma) [17])
CN(CCO)CC[C@H](CSc1ccccc1)Nc1ccc(S(=O)(=O)NC(=O)c2ccc(N3CCC([C@@H](O)c4ccccc4-c4ccc(Cl)cc4)CC3)cc2)cc1S(=O)(=O)C(F)(F)F [AZD4320] + C=CCn1c(=O)c2cnc(Nc3ccc(N4CCN(C)CC4)cc3)nc2n1-c1cccc(C(C)(C)O)n1 [AZD1775] (first compound max 1 µM, partner max 1 µM)	-0.0487	0.0284	-0.035	0.0346	-0.0345	0.006	-0.0067	0.0775	-0.0404	0.0439	0.0572	0.0365	0.0352	-0.0191	0.021	-0.0281	0.0085	0.795	0.196	0.529
CN(CCO)CC[C@H](CSc1ccccc1)Nc1ccc(S(=O)(=O)NC(=O)c2ccc(N3CCC([C@@H](O)c4ccccc4-c4ccc(Cl)cc4)CC3)cc2)cc1S(=O)(=O)C(F)(F)F [AZD4320] + C[C@@H](Nc1cc(F)cc(F)c1)c1cc(C(=O)N(C)C)cc2c(=O)cc(N3CCOCC3)oc12 [AZD8186] (first compound max 1 µM, 7x7, partner max 3 µM)	-0.0076	0.0202	0.0304	-0.0196	0.0463	0.0803	-0.0485	-0.0236	0.0429	0.01	0.0398	-0.0528	-0.0468	0.0099	-0.0141	0.0063	0.0104	0.35	0.459	0.613
CN(CCO)CC[C@H](CSc1ccccc1)Nc1ccc(S(=O)(=O)NC(=O)c2ccc(N3CCC([C@@H](O)c4ccccc4-c4ccc(Cl)cc4)CC3)cc2)cc1S(=O)(=O)C(F)(F)F [AZD4320] + CC(=O)O[C@H]1C(=O)[C@@]2(C)[C@H]([C@H](OC(=O)c3ccccc3)[C@]3(O)C[C@H](OC(=O)[C@H](O)[C@@H](NC(=O)c4ccccc4)c4ccccc4)C(C)=C1C3(C)C)[C@]1(OC(C)=O)CO[C@@H]1C[C@@H]2O [Paclitaxel] (first compound max 1 µM, 7x7, partner max 3 µM)	-0.0017	-0.0362	0.277	-0.0306	0.174	0.0533	-0.0037	0.137	0.0892	0.0393	-0.0223	0.0861	-0.0057	0.0236	0.11	0.0887	-0.0076	0.793	0.65	0.852
CN(CCO)CC[C@H](CSc1ccccc1)Nc1ccc(S(=O)(=O)NC(=O)c2ccc(N3CCC([C@@H](O)c4ccccc4-c4ccc(Cl)cc4)CC3)cc2)cc1S(=O)(=O)C(F)(F)F [AZD4320] + Nc1ccn([C@@H]2O[C@H](CO)[C@@H](O)C2(F)F)c(=O)n1 [Gemcitabine] (first compound max 1 µM, 7x7, partner max 0.3 µM)	-0.0286	-0.0321	0.0579	-0.0017	-0.0457	0.103	-0.0302	0.0836	0.0024	0.0486	-0.0482	0.0333	-0.0368	-0.108	-0.009	-0.0326	0.0167	0.674	0.531	0.607
C[C@@H](c1ccc2nccn2c1)n1nnc2ncc(-c3cnn(C)c3)nc21 [Savolitinib] + Cc1c2c(nn1C)CSCc1cc(n(C)n1)CSc1cc(c3ccccc3c1)OCCCc1c(C(=O)O)n(C)c3c-2c(Cl)ccc13 [AZD5991] (first compound max 1 µM, 7x7, partner max 1 µM)	-0.0204	-0.074	-0.0315	-0.0501	-0.0699	-0.0312	-0.0228	-0.0046	-0.0243	-0.0486	-0.0063	-0.0416	-0.0397	-0.0402	-0.0537	0.0174	-0.079	0.164	0.18	0.218
N#Cc1cnc(Nc2cc(NC[C@H]3CNCCO3)c(C(F)(F)F)cn2)cn1 [SRA737] + CCc1c2c(nc3ccc(O)cc13)-c1cc3c(c(=O)n1C2)COC(=O)[C@]3(O)CC [SN-38] (first compound max 10 µM, 7x7, partner max 0.3 µM)	-0.0792	-0.0496	-0.0377	-0.0723	-0.0012	-0.0249	0.0131	-0.0704	-0.031	-0.0259	-0.0606	-0.0258	-0.0697	-0.0793	0.0405	-0.0309	-0.0777	0.905	0.549	0.746
Cc1cc2ncnn2cc1Nc1ncc2c(n1)n(C1CCOCC1)c(=O)n2C [AZD7648] + COc1cc([C@@H]2c3cc4c(cc3[C@@H](O[C@@H]3O[C@@H]5CO[C@@H](C)O[C@H]5[C@H](O)[C@H]3O)[C@H]3COC(=O)[C@H]23)OCO4)cc(OC)c1O [Etoposide] (first compound max 10 µM, 7x7, partner max 10 µM)	0.0583	0.085	0.0595	0.0495	-0.013	0.0677	-0.0132	-0.0132	0.0189	0.105	0.0532	0.0013	0.0461	0.0472	0.0975	-0.0106	0.0922	0.876	0.386	0.613
Cc1cc2ncnn2cc1Nc1ncc2c(n1)n(C1CCOCC1)c(=O)n2C [AZD7648] + CN(C)CCCOc1ccc(-c2ccc3ncc4c(c3c2)n(C2CCOCC2)c(=O)n4C)cn1 [AZD0156] (first compound max 10 µM, 7x7, partner max 1 µM)	-0.0334	-0.0148	0.0015	-0.0217	-0.0273	-0.0122	-0.0441	0.0071	-0.0147	0.0138	-0.033	-0.0016	-0.0136	-0.0146	0.0148	0.033	0.0249	0.27	0.289	0.184
CN(CCO)CC[C@H](CSc1ccccc1)Nc1ccc(S(=O)(=O)NC(=O)c2ccc(N3CCC([C@@H](O)c4ccccc4-c4ccc(Cl)cc4)CC3)cc2)cc1S(=O)(=O)C(F)(F)F [AZD4320] + Cn1cnc2c(F)c(Nc3ccc(Br)cc3Cl)c(C(=O)NOCCO)cc21 [Selumetinib] (first compound max 1 µM, 7x7, partner max 3 µM)	0.136	0.0111	0.0043	-0.0592	0.012	0.152	-0.0267	-0.0155	-0.0388	-0.0124	0.0103	0.0193	-0.0044	0.0008	0.032	0.0065	0.0035	0.505	0.335	0.582
N#Cc1cnc(Nc2cc(NC[C@H]3CNCCO3)c(C(F)(F)F)cn2)cn1 [SRA737] + C=CCn1c(=O)c2cnc(Nc3ccc(N4CCN(C)CC4)cc3)nc2n1-c1cccc(C(C)(C)O)n1 [AZD1775] (first compound max 10 µM, partner max 1 µM)	0.0367	0.097	-0.0074	0.0335	0.0559	0.0276	-0.008	0.0319	-0.0132	0.0231	0.0391	-0.0403	-0.0117	-0.0452	-0.0272	0.0343	-0.0052	0.711	0.274	0.48
N#Cc1cnc(Nc2cc(NC[C@H]3CNCCO3)c(C(F)(F)F)cn2)cn1 [SRA737] + O=c1[nH]cc(F)c(=O)[nH]1 [5-Fluorouracil] (first compound max 10 µM, 7x7, partner max 20 µM)	0.0268	-0.0066	0.0467	-0.0038	-0.0584	0.0824	0.0695	-0.082	0.0202	0.0337	-0.0304	-0.0258	0.0228	-0.122	-0.0353	0.023	0.0347	0.497	0.409	0.458
COc1cc2ncnc(Nc3ccc(F)c(Cl)c3)c2cc1OCCCN1CCOCC1 [Gefitinib] + CC(C)n1c(=O)n(C)c2cnc3cc(F)c(-c4ccc(OCCCN5CCCCC5)nc4)cc3c21 [AZD1390] (first compound max 10 µM, 7x7, partner max 0.3 µM)	-0.079	-0.0704	-0.0417	-0.0774	-0.0265	-0.0536	-0.0446	-0.0477	-0.0402	-0.0611	0.0012	-0.047	-0.0346	0.0092	-0.0762	-0.0549	-0.0589	0.431	0.225	0.175
CN(CCO)CC[C@H](CSc1ccccc1)Nc1ccc(S(=O)(=O)NC(=O)c2ccc(N3CCC([C@@H](O)c4ccccc4-c4ccc(Cl)cc4)CC3)cc2)cc1S(=O)(=O)C(F)(F)F [AZD4320] + C[C@@H]1COCCN1C2=NC(=NC(=C2)C3(CC3)[S@](=N)(=O)C)C4=C5C=CNC5=NC=C4 [AZD6738] (first compound max 1 µM, 7x7, partner max 10 µM)	-0.133	-0.0402	-0.0342	0.0248	0.0007	-0.0318	-0.0186	-0.0344	-0.0121	0.0133	0.0053	-0.048	0.0134	-0.0723	-0.0151	-0.0348	-0.0969	0.877	0.34	0.686
